According to patent publication US8362018B2, “Substituted imidazo[1,2-a]pyrazine compounds useful for the treatment of viral infections” (Biofocus DPI, Ltd., priority 2007, dated 2013):

Assays:
[1] = cytotoxicity measurement (CC50), Table 13; type: cell-based; conditions: human, Huh7 cells
HCV replicon = experiment: anti-viral assay (EC50), Table 13; type: cell-based; conditions: Hepatitis C virus, anti-viral assays
Text: The ability of a compound to inhibit HCV replication can be measured in vitro or using animal models using models and assays well known to those of skill in the art (e.g. Pietschmann et al, Clin Liver Dis. 7(1)c23-43, 2003). In vitro techniques for measuring the ability of a compound to inhibit HCV replication involve using HCV or an HCV replicon. Because HCV is difficult to grow in culture, particular in vitro techniques employ an HCV replicon.
An HCV replicon is an RNA molecule able to autonomously replicate in a cultured cell, such as Huh7. The HCV replicon expresses the HCV derived components of the replication machinery and contains cis-elements required for replication in a cultured cell. […]

Row | Structure (SMILES) | CC50 [1] [µM] | EC50 (HCV replicon) [µM]
1 | CC(=O)Nc1ccc(-c2cnc3c(NCc4ccc(S(N)(=O)=O)cc4)nccn23)cc1 [Compound 27] | > 35 | 1 to 20
2 | CS(=O)(=O)Nc1ccc(-c2cnc3c(NCc4ccc(S(N)(=O)=O)cc4)nccn23)cc1 [Compound 28] | > 35 | > 20
3 | COc1ccc(-c2cnc3c(NCC4CCOCC4)nccn23)cc1OC [Compound 29] | < 35 | 1 to 20
4 | COc1ccc(-c2cnc3c(NCCCn4ccnc4)nccn23)cc1OC [Compound 30] | > 35 | > 20
5 | COc1cc(-c2cnc3c(NCc4ccc(S(N)(=O)=O)cc4)nccn23)cc(Cl)c1O [Compound 31] | > 35 | 1 to 20
6 | CS(=O)(=O)c1ccc(CNc2nccn3c(-c4ccc(O)cc4)cnc23)cc1 [Compound 32] | > 35 | 1 to 20
7 | Cc1cc(O)ccc1-c1cnc2c(NCc3ccc(S(N)(=O)=O)cc3)nccn12 [Compound 33] | > 35 | 1 to 20
8 | Oc1ccc(-c2cnc3c(NCc4ccc(Cl)cc4)nccn23)cc1 [Compound 34] | < 35 | 1 to 20
9 | Cc1cccc(CNc2nccn3c(-c4ccc(O)cc4)cnc23)c1 [Compound 35] | < 35 | 1 to 20
10 | Cc1ccccc1CNc1nccn2c(-c3ccc(O)cc3)cnc12 [Compound 36] | < 35 | 1 to 20
11 | Oc1ccc(-c2cnc3c(NCc4ccccc4Cl)nccn23)cc1 [Compound 37] | > 35 | 1 to 20
12 | Cc1ccc(CNc2nccn3c(-c4ccc(O)cc4)cnc23)cc1 [Compound 38] | > 35 | 1 to 20
13 | Oc1ccc(-c2cnc3c(NCc4ccc(C(F)(F)F)cc4)nccn23)cc1 [Compound 39] | < 35 | 1 to 20
14 | COc1ccc(CNc2nccn3c(-c4ccc(O)cc4)cnc23)cc1 [Compound 40] | > 35 | 1 to 20
15 | Cc1cc(-c2cnc3c(NCc4ccc(S(N)(=O)=O)cc4)nccn23)cc(C)c1O [Compound 41] | < 35 | 1 to 20
16 | N#Cc1ccc(CNc2nccn3c(-c4ccc(O)cc4)cnc23)cc1 [Compound 42] | < 35 | 1 to 20
17 | COc1ccc(-c2cnc3c(NCCS(N)(=O)=O)nccn23)cc1OC [Compound 43] | > 35 | > 20
18 | COc1ccc(-c2cnc3c(NCc4cccc(Cl)c4)nccn23)cc1 [Compound 44] | < 35 | 1 to 20
19 | NS(=O)(=O)c1ccc(CNc2nccn3c(-c4ccc(CO)s4)cnc23)cc1 [Compound 45] | > 35 | 1 to 20
20 | NS(=O)(=O)c1ccc(CNc2nccn3c(-c4ccc(CO)o4)cnc23)cc1 [Compound 46] | > 35 | 1 to 20

Row | Structure (SMILES) | CC50 [1] [µM] | EC50 (HCV replicon) [µM]
21 | OCc1ccc(CNc2nccn3c(-c4ccc(O)cc4)cnc23)cc1 [Compound 47] | < 35 | 1 to 20
22 | NC(=O)c1ccc(CNc2nccn3c(-c4ccc(O)cc4)cnc23)cc1 [Compound 48] | > 35 | 1 to 20
23 | CNC(=O)c1ccc(CNc2nccn3c(-c4ccc(O)cc4)cnc23)cc1 [Compound 49] | < 35 | 1 to 20
24 | Nc1ccc(-c2cnc3c(NCc4ccc(S(N)(=O)=O)cc4)nccn23)cc1 [Compound 50] | > 35 | 1 to 20
25 | N#Cc1cc(-c2cnc3c(NCc4ccc(S(N)(=O)=O)cc4)nccn23)ccc1O [Compound 51] | > 35 | > 20
26 | O=C(O)c1ccc(CNc2nccn3c(-c4ccc(O)cc4)cnc23)cc1 [Compound 52] | > 35 | > 20
27 | NS(=O)(=O)c1ccc(CNc2nccn3c(-c4ccc(O)c([N+](=O)[O-])c4)cnc23)cc1 [Compound 54] | > 35 | 1 to 20
28 | COc1ccc2cc(-c3cnc4c(NCc5ccc(S(N)(=O)=O)cc5)nccn34)ccc2c1 [Compound 55] | < 35 | 1 to 20
29 | COc1cc(-c2cnc3c(NCc4cccc(S(N)(=O)=O)c4)nccn23)ccc1O [Compound 56] | < 35 | < 1
30 | NS(=O)(=O)c1cccc(CNc2nccn3c(-c4ccc(O)c(F)c4)cnc23)c1 [Compound 57] | > 35 | < 1
31 | Oc1ccc(-c2cnc3c(NCc4cccnc4)nccn23)cc1 [Compound 58] | < 35 | 1 to 20
32 | Oc1ccc(-c2cnc3c(NCc4cccs4)nccn23)cc1 [Compound 59] | < 35 | 1 to 20
33 | COc1cc(CNc2nccn3c(-c4ccc(O)cc4)cnc23)cc(OC)c1OC [Compound 60] | < 35 | 1 to 20
34 | Oc1ccc(-c2cnc3c(NCc4ccc5c(c4)OCO5)nccn23)cc1 [Compound 61] | < 35 | 1 to 20
35 | COc1ccc(-c2cnc3c(NCCc4ccncc4)nccn23)cc1OC [Compound 62] | < 35 | 1 to 20
36 | CN1CCN(c2ccc(-c3cnc4c(Nc5cccc(OC(F)(F)C(F)F)c5)nccn34)cn2)CC1 [Compound 63] | < 35 | 1 to 20
37 | COc1ccc(-c2cnc3c(Nc4ccc(N5CCOCC5)cc4)nccn23)cc1OC [Compound 64] | < 35 | 1 to 20
38 | NS(=O)(=O)c1ccc(CNc2nccn3c(-c4cccc(O)c4)cnc23)cc1 [Compound 65] | < 35 | 1 to 20
39 | COc1ccc(-c2cnc3c(NCc4cccs4)nccn23)cc1OC [Compound 66] | < 35 | 1 to 20
40 | NS(=O)(=O)c1ccc(CNc2nccn3c(-c4cccc(F)c4)cnc23)cc1 [Compound 67] | < 35 | 1 to 20

Row | Structure (SMILES) | CC50 [1] [µM] | EC50 (HCV replicon) [µM]
41 | COc1ccc(-c2cnc3c(NCc4ccco4)nccn23)cc1OC [Compound 68] | < 35 | 1 to 20
42 | CC(C)c1ccc(Nc2nccn3c(-c4ccc(O)cc4)cnc23)cc1 [Compound 69] | < 35 | 1 to 20
43 | CC(C)c1ccc(Nc2nccn3c(-c4cccc(NS(C)(=O)=O)c4)cnc23)cc1 [Compound 70] | < 35 | 1 to 20
44 | CS(=O)(=O)Nc1cccc(-c2cnc3c(NCc4ccc(S(N)(=O)=O)cc4)nccn23)c1 [Compound 71] | < 35 | 1 to 20
45 | CS(=O)(=O)Nc1cccc(-c2cnc3c(NCc4ccc5c(c4)OCO5)nccn23)c1 [Compound 73] | < 35 | 1 to 20
46 | NS(=O)(=O)c1ccc(CNc2nccn3c(-c4ccccc4)cnc23)cc1 [Compound 74] | < 35 | 1 to 20
47 | NS(=O)(=O)c1ccc(CNc2nccn3c(-c4cccc(CO)c4)cnc23)cc1 [Compound 75] | < 35 | 1 to 20
48 | Oc1cccc(-c2cnc3c(NCc4cccnc4)nccn23)c1 [Compound 76] | < 35 | 1 to 20
49 | CS(=O)(=O)Nc1cccc(-c2cnc3c(NCc4cccnc4)nccn23)c1 [Compound 77] | < 35 | 1 to 20
50 | COCCCNc1nccn2c(-c3ccc(OC)c(OC)c3)cnc12 [Compound 78] | < 35 | 1 to 20
51 | OCc1ccc(-c2cnc3c(NCc4ccc(F)cc4)nccn23)cc1 [Compound 79] | < 35 | 1 to 20
52 | Oc1cccc(-c2cnc3c(NCc4cccs4)nccn23)c1 [Compound 80] | < 35 | 1 to 20
53 | OCc1ccc(-c2cnc3c(NCc4ccc5c(c4)OCO5)nccn23)cc1 [Compound 81] | < 35 | 1 to 20
54 | Oc1ccc(Nc2nccn3c(-c4cccc(F)c4)cnc23)cc1 [Compound 82] | < 35 | 1 to 20
55 | COc1ccc(CNc2nccn3c(-c4cccc(NS(C)(=O)=O)c4)cnc23)cc1 [Compound 83] | < 35 | 1 to 20
56 | CC(=O)c1cccc(-c2cnc3c(NCCc4cccnc4)nccn23)c1 [Compound 84] | < 35 | 1 to 20
57 | Oc1cccc(-c2cnc3c(NCCc4cccnc4)nccn23)c1 [Compound 85] | < 35 | 1 to 20
58 | COc1ccccc1-c1cnc2c(NCc3ccc(S(N)(=O)=O)cc3)nccn12 [Compound 86] | < 35 | 1 to 20
